Patent US20120203161A1, “DEUTERATED WATER AND RIBOFLAVIN SOLUTION FOR EXTENDING SINGLET OXYGEN LIFETIMES IN TREATMENT OF OCULAR TISSUE AND METHOD OF USE” (SEROS MEDICAL, LLC, priority 2009, published 2012)

Test system: endothelial cell

SMILES: [2H]O[2H] [deuterated water, deuterium oxide]
- endothelial cell apoptosis: does not induce endothelial cell apoptosis
